Results from the Kinase Knowledgebase extract (Sharma et al. 2016).

The molecules below were run against ROCK2 (UniProt O75116) (assay: Inhibition of ROCK2 Kinase Activity).
Chain of ROCK2 (O75116 whole entry, looked up): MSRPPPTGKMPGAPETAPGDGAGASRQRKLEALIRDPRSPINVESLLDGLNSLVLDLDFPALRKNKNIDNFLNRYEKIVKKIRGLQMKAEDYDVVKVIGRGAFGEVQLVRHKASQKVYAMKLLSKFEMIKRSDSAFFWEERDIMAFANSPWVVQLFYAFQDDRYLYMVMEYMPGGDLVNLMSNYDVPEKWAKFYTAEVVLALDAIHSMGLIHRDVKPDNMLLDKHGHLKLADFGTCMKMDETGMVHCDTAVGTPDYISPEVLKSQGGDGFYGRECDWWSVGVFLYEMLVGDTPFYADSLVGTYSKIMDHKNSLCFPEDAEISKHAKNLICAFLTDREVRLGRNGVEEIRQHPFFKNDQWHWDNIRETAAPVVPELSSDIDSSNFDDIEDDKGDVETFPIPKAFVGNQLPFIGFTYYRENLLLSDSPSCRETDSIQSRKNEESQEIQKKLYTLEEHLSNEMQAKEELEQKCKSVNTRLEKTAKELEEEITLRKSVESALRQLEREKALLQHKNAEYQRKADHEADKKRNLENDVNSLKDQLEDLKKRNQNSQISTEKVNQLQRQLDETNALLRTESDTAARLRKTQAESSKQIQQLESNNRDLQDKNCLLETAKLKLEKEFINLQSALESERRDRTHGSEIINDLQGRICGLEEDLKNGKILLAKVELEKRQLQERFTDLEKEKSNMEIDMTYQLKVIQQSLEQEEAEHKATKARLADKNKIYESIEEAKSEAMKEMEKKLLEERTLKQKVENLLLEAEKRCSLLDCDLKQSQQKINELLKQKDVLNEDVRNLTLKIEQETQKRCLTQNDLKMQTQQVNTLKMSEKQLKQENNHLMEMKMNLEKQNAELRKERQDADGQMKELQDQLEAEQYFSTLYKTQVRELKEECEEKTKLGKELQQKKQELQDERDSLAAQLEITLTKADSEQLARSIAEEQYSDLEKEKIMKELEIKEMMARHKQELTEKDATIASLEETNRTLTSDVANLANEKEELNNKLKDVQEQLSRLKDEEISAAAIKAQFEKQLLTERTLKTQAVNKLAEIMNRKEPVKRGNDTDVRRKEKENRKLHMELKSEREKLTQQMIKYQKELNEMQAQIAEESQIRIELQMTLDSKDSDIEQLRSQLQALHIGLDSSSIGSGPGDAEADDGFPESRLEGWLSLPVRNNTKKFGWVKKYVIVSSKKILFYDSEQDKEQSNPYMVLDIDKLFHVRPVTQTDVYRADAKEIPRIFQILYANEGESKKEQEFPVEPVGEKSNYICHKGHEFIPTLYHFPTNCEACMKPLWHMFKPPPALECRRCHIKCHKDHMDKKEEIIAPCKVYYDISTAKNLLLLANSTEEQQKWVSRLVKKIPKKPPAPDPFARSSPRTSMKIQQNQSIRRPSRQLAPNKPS
For `CC(C)(N)c1ccc(-c2ccc3[nH]ncc3c2N2CCOCC2)cc1`, the Ki was 211 nM. In the case of `CC(C)(N)c1ccc(-c2ccc3[nH]ncc3c2)cc1`, the Ki is reported as 19 nM. For `CC(C)(N)c1ccc(-c2ccc3[nH]ncc3c2-c2ccccn2)cc1`, the Ki was 241 nM. Molecule `C=C(C)c1n[nH]c2ccc(-c3ccc(C(C)(C)N)cc3)cc12` has a Ki of 56 nM. `CC(C)(N)c1ccc(-c2ccc3[nH]ncc3c2-c2cc[nH]n2)cc1` gave a Ki of 11 nM. `COc1c(-c2ccc(C3(N)CCCC3)cn2)ccc2[nH]ncc12` showed a Ki of 27 nM. Molecule `CN(C)c1c(-c2ccc(CN)cc2)ccc2[nH]ncc12` has a Ki of 29 nM. For `CC(C)(N)c1ccc(-c2ccc3[nH]ncc3c2OC(F)F)cc1`, the Ki was 3.6 nM. Work on `CC(C)(N)c1ccc(-c2ccc3[nH]ncc3c2C2CC2)nc1` yielded a Ki of 2.7 nM. `CCOc1c(-c2ccc(C(N)(CC)CC)cn2)ccc2[nH]ncc12` was tested, and the Ki was 35 nM. Work on `CNc1c(-c2ccc(C(C)(C)N)cc2)ccc2[nH]ncc12` yielded a Ki of 15 nM. Work on `CC(C)(N)c1ccc(-c2ccc3[nH]ncc3c2-c2cn[nH]c2)cc1` yielded a Ki of 4.4 nM. `CC(C)(N)c1ccc(-c2ccc3[nH]ncc3c2[N+](=O)[O-])cc1` was tested, and the Ki was 28 nM. Work on `CC(C)(N)c1ccc(-c2ccc3[nH]ncc3c2-c2ccncc2)cc1` yielded a Ki of 45 nM. `C=Cc1c(-c2ccc(C(C)(C)N)cn2)ccc2[nH]ncc12` showed a Ki of 17 nM. For `CCOc1c(-c2ccc(C(C)(C)N)cn2)ccc2[nH]ncc12`, the Ki was 45 nM. With `CC(C)(N)c1ccc(-c2ccc3[nH]ncc3c2O)cc1` the Ki was 29 nM. For `CC(C)(N)c1ccc(-c2ccc3[nH]nc(C=NO)c3c2)cc1`, the Ki was 7.5 nM. For `CC(C)(N)c1ccc(-c2ccc3[nH]ncc3c2)nc1`, the Ki was 20 nM. In the case of `COc1c(-c2ccc(C(C)(C)N)cc2)ccc2[nH]ncc12`, the Ki is reported as 13 nM. Work on `CC(C)(N)c1ccc(-c2ccc3[nH]ncc3c2CCO)nc1` yielded a Ki of 234 nM. `COc1c(-c2ccc(C(C)(C)N)cn2)ccc2[nH]ncc12` showed a Ki of 27 nM. Work on `CCC(N)(CC)c1ccc(-c2ccc3[nH]ncc3c2OC2CC2)nc1` yielded a Ki of 34 nM. `CCC(N)(CC)c1ccc(-c2ccc3[nH]ncc3c2OC(F)F)cc1` showed a Ki of 13 nM. `CC(C)(N)c1ccc(-c2ccc3[nH]ncc3c2N)cc1` was tested, and the Ki was 44 nM. With `CC(N)c1ccc(-c2ccc3[nH]ncc3c2N(C)C)cc1` (stereo not drawn) the Ki was 27 nM. Work on `CC(C)(N)c1ccc(-c2ccc3[nH]ncc3c2OC2CC2)nc1` yielded a Ki of 28 nM. With `CCN(CC)c1c(-c2ccc(C(C)(C)N)cc2)ccc2[nH]ncc12` the Ki was 614 nM. Molecule `CC(C)(N)c1ccc(-c2ccc3[nH]ncc3c2-c2cccnc2)cc1` has a Ki of 126 nM. `CC(C)(N)c1ccc(-c2ccc3[nH]ncc3c2[N+](=O)[O-])nc1` gave a Ki of 199 nM. With `CCOc1c(-c2ccc(C(C)(C)N)cc2)ccc2[nH]ncc12` the Ki was 17 nM. `CC(C)(N)c1ccc(-c2ccc3[nH]ncc3c2-c2cnco2)cc1` gave a Ki of 2.6 nM. In the case of `NCc1ccc(-c2ccc3[nH]ncc3c2[N+](=O)[O-])cc1`, the Ki is reported as 55 nM. Work on `CC(C)(N)c1ccc(-c2ccc3[nH]ncc3c2CCO)cc1` yielded a Ki of 47 nM. `NCc1ccc(-c2ccc3[nH]ncc3c2N)cc1` was tested, and the Ki was 61 nM. For `CCC(N)(CC)c1ccc(-c2ccc3[nH]ncc3c2N(C)C)cc1`, the Ki was 23 nM. With `CCC(N)(CC)c1ccc(-c2ccc3[nH]ncc3c2N)cc1` the Ki was 38 nM. With `CC(C)(N)c1ccc(-c2ccc3[nH]ncc3c2OCCF)cc1` the Ki was 26 nM. Work on `COC(=O)c1n[nH]c2ccc(-c3ccc(C(C)(C)N)cc3)cc12` yielded a Ki of 97 nM. Molecule `CC(C)(N)c1ccc(-c2ccc3[nH]nc(N)c3c2)cc1` has a Ki of 144 nM. For `CC(C)Oc1c(-c2ccc(C(C)(C)N)cc2)ccc2[nH]ncc12`, the Ki was 33 nM. In the case of `CC(C)(N)c1ccc(-c2ccc3[nH]ncc3c2N2CCCCC2)cc1`, the Ki is reported as 14 nM. With `CCCCOc1c(-c2ccc(C(C)(C)N)cc2)ccc2[nH]ncc12` the Ki was 13 nM. Work on `Nc1c(-c2ccc(C3(N)CCCC3)cc2)ccc2[nH]ncc12` yielded a Ki of 26 nM. `C=CCOc1c(-c2ccc(C(C)(C)N)cc2)ccc2[nH]ncc12` showed a Ki of 23 nM. `CC(C)(N)c1ccc(-c2ccc3[nH]ncc3c2OC(F)F)nc1` showed a Ki of 6.9 nM. `CCCOc1c(-c2ccc(C(C)(C)N)cc2)ccc2[nH]ncc12` showed a Ki of 14 nM. For `CN(C)c1c(-c2ccc(C(C)(C)N)cc2)ccc2[nH]ncc12`, the Ki was 16 nM. Molecule `CC(C)(N)c1ccc(-c2ccc3[nH]ncc3c2O)nc1` has a Ki of 55 nM. With `CC(C)(N)c1ccc(-c2ccc3[nH]ncc3c2-n2cccc2)cc1` the Ki was 12 nM. `CN(C)c1c(-c2ccc(C3(N)CCCC3)cc2)ccc2[nH]ncc12` was tested, and the Ki was 14 nM. For `CC(C)Oc1c(-c2ccc(C(C)(C)N)cn2)ccc2[nH]ncc12`, the Ki was 84 nM. In the case of `CC(C)(N)c1ccc(-c2ccc3[nH]ncc3c2OCC2CC2)nc1`, the Ki is reported as 146 nM. With `CC(C)(N)c1ccc(-c2ccc3[nH]ncc3c2N2CCCC2)cc1` the Ki was 14 nM. For `CC(C)(N)c1ccc(-c2ccc3[nH]ncc3c2NCc2ccccc2)cc1`, the Ki was 260 nM. Molecule `CCc1c(-c2ccc(C(C)(C)N)cn2)ccc2[nH]ncc12` has a Ki of 15 nM. Molecule `CC(C)(N)c1ccc(-c2ccc3[nH]ncc3c2OCC(F)(F)F)cc1` has a Ki of 31 nM. For `CC(C)(N)c1ccc(-c2ccc3[nH]ncc3c2-c2cn[nH]c2)nc1`, the Ki was 56 nM. In the case of `CC(C)(N)c1ccc(-c2ccc3[nH]nc(CO)c3c2)cc1`, the Ki is reported as 142 nM. Work on `CC(C)(N)c1ccc(-c2ccc3[nH]ncc3c2CO)cc1` yielded a Ki of 139 nM. `CC(C)(N)c1ccc(-c2ccc3[nH]nc(C(N)=O)c3c2)cc1` showed a Ki of 134 nM. Molecule `CCCOc1c(-c2ccc(C(C)(C)N)cn2)ccc2[nH]ncc12` has a Ki of 39 nM. `CC(C)(N)c1cnc(-c2ccc3[nH]ncc3c2)c(Cl)c1` showed a Ki of 86 nM. `CC(C)(N)c1ccc(-c2ccc3[nH]nc(C#N)c3c2)cc1` was tested, and the Ki was 103 nM. Molecule `CC(C)(N)c1ccc(-c2ccc3[nH]ncc3c2-c2ccno2)cc1` has a Ki of 6.4 nM. `CC(O)c1c(-c2ccc(C(C)(C)N)cc2)ccc2[nH]ncc12` (stereo not drawn) gave a Ki of 294 nM. For `CC(C)(N)c1ccc(-c2ccc3[nH]ncc3c2C#N)cc1`, the Ki was 35 nM. `CCC(N)(CC)c1ccc(-c2ccc3[nH]ncc3c2OC)nc1` showed a Ki of 38 nM.
